Test results as given in patent US20230143751A1, “Aromatic Compound And Use Thereof In Preparing Antineoplastic Drugs” (Shanghai Zheye Biotechnology Co. Ltd., priority 2020, published 2023).
Read-outs that look alike come from different tables or passages of the source.

What was measured:
Type in all cases: cell-based
NCI-H358 cells = assay: Cell proliferation activity of NCI-H358 by CellTiter-Glo reagent; conditions: for IC50: read-out: IC50 value of cell proliferation inhibitory activity of NCI-H358
Description: NCI-H358 cells in exponential growth phase were digested with trypsin-EDTA, plated in a 96-well plate with 2000-3000 cells per well, and incubated overnight at 37° C. with 5% CO2. […] After the incubation, CellTiter-Glo test reagent with an equal volume was added into each well and the obtained 96-well plate was incubated after shaking. The chemiluminescence values were determined by microplate reader, and the IC50 values of the test compounds inhibiting the proliferation of NCI-H358 cells were fitted and calculated by GraphPad Prism software.
The test method of inhibitory activity was the same as that in Test 3 in “Biological Tests” part.

MIA PaCa-2 cells = assay: Cell proliferation activity of MIA PaCa-2 by CellTiter-Glo reagent; conditions: 72 h, CellTiter-Glo; for IC50: Homo sapiens, MIA PaCa-2, read-out: IC50 value of cell proliferation inhibitory activity of the compound on MIA PaCa-2
Description: MIA PaCa-2 cells in exponential growth phase were digested with trypsin-EDTA, plated in a 96-well plate with 2000-3000 cells per well, and incubated overnight at 37° C. with 5% CO2. Mother solutions were prepared from the test compounds by using DMSO, subjected to gradient elution with DMEM growth medium, and then added into the 96-well plate and incubated in an incubator for 72 h at 37° C. with 5% CO2. After the incubation, CellTiter-Glo test reagent with an equal volume was added into each well and the obtained 96-well plate was incubated after shaking. The chemiluminescence values were determined by microplate reader, and the IC50 values of the test compounds inhibiting the proliferation of MIA PaCa-2 cells were fitted and calculated by GraphPad Prism software.
The test method of inhibitory activity was the same as that in Test 2 in “Biological Tests” part.

NCI-H358 = assay: Cell proliferation inhibitory activity on NCI-H358, 3D model test (agarose colony formation); conditions: for anti-cell proliferation activity against KRAS G12C mutant type cells NCI-H358 (in words): 3D model test; for IC50: Homo sapiens, NCI-H358, 3D agarose colony formation, NBT staining
Description: 100 μl of agarose gel with a high concentration was spread in a 96-well plate as the bottom agarose gel layer. Agarose with a low concentration and growth medium containing cells were mixed and then spread on the bottom agar layer, cooled and solidified, then incubated overnight at 37° C. Mother solutions were prepared from the test compounds by using DMSO, and then subjected to gradient elution with RPMI 1640 growth medium. The solutions of test compounds with different concentrations after gradient elution were added to the 96-well plate comprising an upper layer of agar gel-cells. Solvent control well was set up and the plate was incubated in a CO2 incubator. The drug-containing medium was changed during the incubation period and the cell growth situation was observed. After the incubation, the cells were stained with NBT and the number of cell colony formation was counted, and the IC50 values of the compounds inhibiting cell proliferation were derived.

[1] = Homo sapiens, NCI-H358, 72 h, 72 h, CellTiter-Glo, test 3
[2] = Homo sapiens, NCI-H358, test 4, method of test 3

Row | SMILES | anti-cell proliferation activity against KRAS G12C mutant type cells NCI-H358 (in words) (NCI-H358 cells; 72 h, CellTiter-Glo) | IC50 (NCI-H358 cells; [2]) [nM] | IC50 (NCI-H358) [nM] | other results
1 | [2H]C([2H])=Cc1ccccc1-c1nc2c(cc1Cl)c(N1[C@@H](C)CN(C(=O)C=C)C[C@@H]1C)nc(=O)n2-c1c(CC)ccnc1C(C)C [Compound 2-3] | significant anti-cell proliferation activity |  |  | 
2 | [2H]/C=C(\[2H])C(=O)N1CCN(c2nc(=O)n(-c3c(CC)ccnc3C(C)C)c3nc(-c4c(F)cccc4C=C)c(Cl)cc23)[C@@H](C)C1 [Compound 2-8] | significant anti-cell proliferation activity |  |  | IC50 (NCI-H358 cells; [1]): < 50 nM
3 | C=CC(=[18O])N1CCN(c2nc(=O)n(-c3c(C)ccnc3C(C)C)c3nc(-c4ccccc4C=C)c(Cl)cc23)[C@@H](C)C1 [Compound 3-1MIS] | significant anti-cell proliferation activity | < 50 |  | 
4 | C=CC(=O)N1CCN(c2nc(=O)n(-c3c(C)ccnc3C(C)C)c3nc(-c4ccccc4C=C)c(F)cc23)[C@@H](C)C1 [Compound 3-1] |  |  | < 50 | anti-cell proliferation activity against KRAS G12C mutant type cells MIA PaCa-2 (in words) (MIA PaCa-2 cells): significant anti-cell proliferation activity; IC50 (MIA PaCa-2 cells): < 50 nM; anti-cell proliferation activity against KRAS G12C mutant type cells NCI-H358 (in words) (NCI-H358): significant anti-cell proliferation activity
5 | C=CC(=[18O])N1C[C@H](C)N(c2nc(=O)n(-c3c(C)ccnc3C(C)C)c3nc(-c4ccccc4C=C)c(Cl)cc23)[C@@H](C)C1 [Compound 3-3MIS] | significant anti-cell proliferation activity | < 50 |  | 
6 | C=CC(=O)N1CCN(c2nc(=O)n(-c3c(CC)ccnc3C(C)C)c3nc(-c4ccccc4C=C)c(Cl)cc23)[C@@H](C)C1 [Compound 3-4MIS] |  |  |  | IC50 (NCI-H358 cells; 72 h, CellTiter-Glo, test 3): < 50 nM
7 | C=CC(=[18O])N1CCN(c2nc(=O)n(-c3c(CC)ccnc3C(C)C)c3nc(-c4ccccc4C=C)c(Cl)cc23)[C@@H](C)C1 [Compound 3-4MIS] | significant anti-cell proliferation activity | < 50 |  | 
8 | C=CC(=[18O])N1CCN(c2nc(=O)n(-c3c(C)ccnc3C(C)C)c3nc(-c4c(F)cccc4C=C)c(Cl)cc23)[C@@H](C)C1 [Compound 3-5MIS] | significant anti-cell proliferation activity | < 50 |  | 
9 | C=CC(=O)N1CCN(c2nc(=O)n(-c3c(C)ccnc3C(C)C)c3nc(-c4c(F)cccc4C=C)c(F)cc23)[C@@H](C)C1 [Compound 3-5] |  |  | < 50 | anti-cell proliferation activity against KRAS G12C mutant type cells MIA PaCa-2 (in words) (MIA PaCa-2 cells): significant anti-cell proliferation activity; IC50 (MIA PaCa-2 cells): < 50 nM; anti-cell proliferation activity against KRAS G12C mutant type cells NCI-H358 (in words) (NCI-H358): significant anti-cell proliferation activity
10 | C=CC(=[18O])N1C[C@H](C)N(c2nc(=O)n(-c3c(C)ccnc3C(C)C)c3nc(-c4c(F)cccc4C=C)c(Cl)cc23)[C@@H](C)C1 [Compound 3-7MIS] | significant anti-cell proliferation activity | < 50 |  | 
11 | C=CC(=[18O])N1CCN(c2nc(=O)n(-c3c(CC)ccnc3C(C)C)c3nc(-c4c(F)cccc4C=C)c(Cl)cc23)[C@@H](C)C1 [Compound 3-8MIS] | significant anti-cell proliferation activity | < 50 |  | 
12 | C=CC(=O)N1C[C@H](C)N(c2nc(=O)n(-c3c(C)ccnc3C(C)C)c3nc(-c4c(F)cccc4C=C)c(Cl)cc23)[C@@H](C)C1 [Compound 3-8] |  |  |  | IC50 (MIA PaCa-2 cells): < 50 nM
13 | [2H]C([2H])=Cc1cccc(F)c1-c1nc2c(cc1Cl)c(N1CCN(C(=[18O])C=C)C[C@@H]1C)nc(=O)n2-c1c(C)ccnc1C(C)C [Compound 3-9MIS] | significant anti-cell proliferation activity | < 50 |  | 
14 | [2H]C([2H])=Cc1cccc(F)c1-c1nc2c(cc1Cl)c(N1[C@@H](C)CN(C(=[18O])C=C)C[C@@H]1C)nc(=O)n2-c1c(C)ccnc1C(C)C [Compound 3-11MIS] | significant anti-cell proliferation activity | < 50 |  | 
15 | [2H]C([2H])=Cc1cccc(F)c1-c1nc2c(cc1Cl)c(N1CCN(C(=[18O])C=C)C[C@@H]1C)nc(=O)n2-c1c(CC)ccnc1C(C)C [Compound 3-12MIS] | significant anti-cell proliferation activity | < 50 |  | 
16 | [2H]C([2H])=Cc1ccccc1-c1nc2c(cc1Cl)c(N1CCN(C(=O)C=C)C[C@@H]1C)nc(=O)n2-c1c(C)ccnc1C(C)C [Compound 3-16M] | significant anti-cell proliferation activity |  |  | IC50 (NCI-H358 cells; [1]): < 50 nM; cell proliferation inhibitory activity on NCI-H358 compared with the corresponding compound with axial chiral S configuration (in words) (NCI-H358 cells; NCI-H358): significantly better
17 | [2H]C([2H])=Cc1cccc(F)c1-c1nc2c(cc1F)c(N1CCN(C(=O)C=C)C[C@@H]1C)nc(=O)n2-c1c(C)ccnc1C(C)C [Compound 3-19] |  |  | < 50 | anti-cell proliferation activity against KRAS G12C mutant type cells MIA PaCa-2 (in words) (MIA PaCa-2 cells): significant anti-cell proliferation activity; IC50 (MIA PaCa-2 cells): < 50 nM; anti-cell proliferation activity against KRAS G12C mutant type cells NCI-H358 (in words) (NCI-H358): significant anti-cell proliferation activity
18 | [2H]C([2H])=Cc1ccccc1-c1nc2c(cc1F)c(N1CCN(C(=O)C=C)C[C@@H]1C)nc(=O)n2-c1c(C)ccnc1C(C)C [Compound 3-23] |  |  | < 50 | IC50 (MIA PaCa-2 cells): < 50 nM
19 | [2H]C([2H])=Cc1cccc(F)c1-c1nc2c(cc1F)c(N1[C@@H](C)CN(C(=O)C(=C)F)C[C@@H]1C)nc(=O)n2-c1c(C)ccnc1C(C)C [Compound 3-25] |  |  | < 50 | 
20 | [2H]C([2H])=Cc1cccc(F)c1-c1nc2c(cc1F)c(N1CCN(C(=O)C(=C)F)C[C@@H]1C)nc(=O)n2-c1c(C)ccnc1C(C)C [Compound 3-27] |  |  | < 50 | 
21 | [2H][C@]1(C)CN(C(=O)C=C)CCN1c1nc(=O)n(-c2c(C)ccnc2C(C)C)c2nc(-c3c(F)cccc3C=C)c(Cl)cc12 [Compound 3-49] | significant anti-cell proliferation activity |  |  | IC50 (NCI-H358 cells; [1]): < 50 nM
22 | [2H]/C=C(\[2H])C(=O)N1CCN(c2nc(=O)n(-c3c(C)ccnc3C(C)C)c3nc(-c4c(F)cccc4C=C)c(Cl)cc23)[C@@H](C)C1 [Compound 3-51] | significant anti-cell proliferation activity |  |  | IC50 (NCI-H358 cells; [1]): < 50 nM
23 | [2H]C([2H])=Cc1cccc(F)c1-c1nc2c(cc1F)c(N1[C@@H](C)CN(C(=O)C(=C)F)C[C@@H]1C)nc(=O)n2-c1c(C([2H])([2H])[2H])ccnc1C(C)C [Compound 4-9] |  |  | < 50 | 
24 | [2H]C([2H])=Cc1cccc(F)c1-c1nc2c(cc1F)c(N1CCN(C(=O)C(=C)F)C[C@@H]1C)nc(=O)n2-c1c(C([2H])([2H])[2H])ccnc1C(C)C [Compound 4-11] |  |  | < 50 | 
25 | [2H]C([2H])=Cc1ccccc1-c1nc2c(cc1F)c(N1CCN(C(=O)C(=C)F)C[C@@H]1C)nc(=O)n2-c1c(C([2H])([2H])[2H])ccnc1C(C)C [Compound 4-16] |  |  | < 50 | 
26 | [2H]C([2H])=Cc1cccc(F)c1-c1nc2c(cc1F)c(N1[C@@H](C)CN(C(=O)C(=C)F)C[C@@H]1C)nc(=O)n2-c1c(C(C)C)ccnc1C(C)C [Compound 5-9] |  |  | < 50 | 
27 | [2H]C([2H])=Cc1cccc(F)c1-c1nc2c(cc1F)c(N1CCN(C(=O)C(=C)F)C[C@@H]1C)nc(=O)n2-c1c(C(C)C)ccnc1C(C)C [Compound 5-11] |  |  | < 50 | 
28 | C=CC(=O)N1CCN(c2nc(=O)n(-c3c(C)ccnc3C(C)C)c3nc(-c4c(F)cccc4C=C)c(Cl)cc23)[C@@H](C)C1 [Example 3-12P] |  |  |  | IC50 (NCI-H358 cells; 72 h, CellTiter-Glo, test 3): > 50 nM
